Patent US9187472B2 (AbbVie Inc., priority 2012, dated 2015)

Test system: PC3 cells
Assay: NAMPT Cell Proliferation Assay
Assay type: cell-based
Settings: 5 days incubation, cell viability by Cell Titer Glo
Procedure, shortened: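 Following overnight attachment in RPMI with 10% heat-inactivated FBS, PC3 cells at 500 per well receive compounds spanning 10 μM down to 1×10^−5 μM. Growth is assessed by luminescent viability read after 5 days.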

Compound	IC50 (Homo sapiens, PC-3, 120 h)	IC50
O=C(NCc1ccn2ccnc2c1)c1ccc(C2CCN(C(=O)c3cnc(C4CC4)s3)CC2)cc1 [Example 1084, 4-{1-[(2-cyclopropyl-1,3-thiazol-5-yl)carbonyl]piperidin-4-yl}-N-(imidazo[1,2-a]pyridin-7-ylmethyl)benzamide]	14.8 nM	–
O=C(NCc1ccn2ccnc2c1)c1ccc(C2CCN(C(=O)c3ccc4scnc4c3)CC2)cc1 [Example 1085, 4-[1-(1,3-benzothiazol-5-ylcarbonyl)piperidin-4-yl]-N-(imidazo[1,2-a]pyridin-7-ylmethyl)benzamide]	25.6 nM	–
CC1CC(C#N)(C(=O)N2CCC(c3ccc(C(=O)NCc4ccn5ccnc5c4)cc3)CC2)C1 (stereo not drawn) [Example 1090, 4-{1-[(1-cyano-3-methylcyclobutyl)carbonyl]piperidin-4-yl}-N-(imidazo[1,2-a]pyridin-7-ylmethyl)benzamide]	5.42 nM	–
N#Cc1ccc(C(=O)N2CCC(c3ccc(C(=O)NCc4ccn5ccnc5c4)cc3)CC2)s1 [Example 1093, 4-{1-[(5-cyanothiophen-2-yl)carbonyl]piperidin-4-yl}-N-(imidazo[1,2-a]pyridin-7-ylmethyl)benzamide]	565 nM	–
O=C(NCc1ccn2ccnc2c1)c1ccc(C2CCN(C(=O)c3ccc(C4CC4)cn3)CC2)cc1 [Example 1094, 4-{1-[(5-cyclopropylpyridin-2-yl)carbonyl]piperidin-4-yl}-N-(imidazo[1,2-a]pyridin-7-ylmethyl)benzamide]	68.8 nM	–
N#Cc1cc(F)c(C(=O)N2CCC(c3ccc(C(=O)NCc4ccn5ccnc5c4)cc3)CC2)c(F)c1 [Example 1095, 4-[1-(4-cyano-2,6-difluorobenzoyl)piperidin-4-yl]-N-(imidazo[1,2-a]pyridin-7-ylmethyl)benzamide]	4.45 nM	–
CC(C)n1ccc(CC(=O)N2CCC(c3ccc(C(=O)NCc4ccn5ccnc5c4)cc3)CC2)n1 [Example 1097, N-(imidazo[1,2-a]pyridin-7-ylmethyl)-4-(1-{[1-(propan-2-yl)-1H-pyrazol-3-yl]acetyl}piperidin-4-yl)benzamide]	64.7 nM	–
O=C(NCc1ccn2ccnc2c1)c1ccc(C2CCN(C(=O)c3coc4ccccc34)CC2)cc1 [Example 1098, 4-[1-(1-benzofuran-3-ylcarbonyl)piperidin-4-yl]-N-(imidazo[1,2-a]pyridin-7-ylmethyl)benzamide]	9.55 nM	–
O=C(NCc1ccn2ccnc2c1)c1ccc(C2CCN(C(=O)c3ccnn3C3CCCC3)CC2)cc1 [Example 1101, 4-{1-[(1-cyclopentyl-1H-pyrazol-5-yl)carbonyl]piperidin-4-yl}-N-(imidazo[1,2-a]pyridin-7-ylmethyl)benzamide]	2.06 nM	–
N#Cc1ccsc1C(=O)N1CCC(c2ccc(C(=O)NCc3ccn4ccnc4c3)cc2)CC1 [Example 1103, 4-{1-[(3-cyanothiophen-2-yl)carbonyl]piperidin-4-yl}-N-(imidazo[1,2-a]pyridin-7-ylmethyl)benzamide]	4.24 nM	–
CC(C(=O)N1CCC(c2ccc(C(=O)NCc3ccn4ccnc4c3)cc2)CC1)n1ccc(C2CC2)n1 (stereo not drawn) [Example 1106, 4-{1-[2-(3-cyclopropyl-1H-pyrazol-1-yl)propanoyl]piperidin-4-yl}-N-(imidazo[1,2-a]pyridin-7-ylmethyl)benzamide]	27.5 nM	–
CC1Cc2cccc(C(=O)N3CCC(c4ccc(C(=O)NCc5ccn6ccnc6c5)cc4)CC3)c2O1 (stereo not drawn) [Example 1107, N-(imidazo[1,2-a]pyridin-7-ylmethyl)-4-{1-[(2-methyl-2,3-dihydro-1-benzofuran-7-yl)carbonyl]piperidin-4-yl}benzamide]	2.26 nM	–
N#Cc1csc(C(=O)N2CCC(c3ccc(C(=O)NCc4ccn5ccnc5c4)cc3)CC2)c1 [Example 1110, 4-{1-[(4-cyanothiophen-2-yl)carbonyl]piperidin-4-yl}-N-(imidazo[1,2-a]pyridin-7-ylmethyl)benzamide]	111 nM	–
O=C(NCc1ccn2ccnc2c1)c1ccc(C2CCN(C(=O)c3ccc4occc4c3)CC2)cc1 [Example 1112, 4-[1-(1-benzofuran-5-ylcarbonyl)piperidin-4-yl]-N-(imidazo[1,2-a]pyridin-7-ylmethyl)benzamide]	16.4 nM	–

Other lines, results leading:

IC50 (Homo sapiens, PC-3, 120 h)	IC50	Compound
9.93 nM	–	Cn1ncc2ccc(C(=O)N3CCC(c4ccc(C(=O)NCc5ccn6ccnc6c5)cc4)CC3)cc21 [Example 1086, N-(imidazo[1,2-a]pyridin-7-ylmethyl)-4-{1-[(1-methyl-1H-indazol-6-yl)carbonyl]piperidin-4-yl}benzamide]
1.68 nM	–	Cc1nn(C)c(C(=O)N2CCC(c3ccc(C(=O)NCc4ccn5ccnc5c4)cc3)CC2)c1Cl [Example 1087, 4-{1-[(4-chloro-1,3-dimethyl-1H-pyrazol-5-yl)carbonyl]piperidin-4-yl}-N-(imidazo[1,2-a]pyridin-7-ylmethyl)benzamide]
34.4 nM	–	CCc1ccc(C(=O)N2CCC(c3ccc(C(=O)NCc4ccn5ccnc5c4)cc3)CC2)nc1 [Example 1088, 4-{1-[(5-ethylpyridin-2-yl)carbonyl]piperidin-4-yl}-N-(imidazo[1,2-a]pyridin-7-ylmethyl)benzamide]
8.27 nM	–	N#Cc1cnc(C(=O)N2CCC(c3ccc(C(=O)NCc4ccn5ccnc5c4)cc3)CC2)c(Cl)c1 [Example 1089, 4-{1-[(3-chloro-5-cyanopyridin-2-yl)carbonyl]piperidin-4-yl}-N-(imidazo[1,2-a]pyridin-7-ylmethyl)benzamide]
4.19 nM	–	CCc1c(C(=O)N2CCC(c3ccc(C(=O)NCc4ccn5ccnc5c4)cc3)CC2)nnn1CC [Example 1091, 4-{1-[(1,5-diethyl-1H-1,2,3-triazol-4-yl)carbonyl]piperidin-4-yl}-N-(imidazo[1,2-a]pyridin-7-ylmethyl)benzamide]
17.7 nM	–	COc1csc(C(=O)N2CCC(c3ccc(C(=O)NCc4ccn5ccnc5c4)cc3)CC2)c1 [Example 1092, N-(imidazo[1,2-a]pyridin-7-ylmethyl)-4-{1-[(4-methoxythiophen-2-yl)carbonyl]piperidin-4-yl}benzamide]
2.07 nM	–	CCn1cc(C(=O)N2CCC(c3ccc(C(=O)NCc4ccn5ccnc5c4)cc3)CC2)c(C(C)C)n1 [Example 1096, 4-(1-{[1-ethyl-3-(propan-2-yl)-1H-pyrazol-4-yl]carbonyl}piperidin-4-yl)-N-(imidazo[1,2-a]pyridin-7-ylmethyl)benzamide]
–	15.6 nM	Cc1nc(C(=O)N2CCC(c3ccc(C(=O)NCc4ccn5ccnc5c4)cc3)CC2)c2n1CCCC2 [Example 1099, Example 1099 N-(imidazo[1,2-a]pyridin-7-ylmethyl)-4-{1-[(3-meth-5,6,7,8-tetrahydroimidazo[1,5-a]pyridin-1-yl)carbonyl]piperidin-4-yl}benzamide]
8.7 nM	–	COc1cc(C(=O)N2CCC(c3ccc(C(=O)NCc4ccn5ccnc5c4)cc3)CC2)ncc1C [Example 1100, N-(imidazo[1,2-a]pyridin-7-ylmethyl)-4-{1-[(4-methoxy-5-methylpyridin-2-yl)carbonyl]piperidin-4-yl}benzamide]
1.77 nM	–	O=C(NCc1ccn2ccnc2c1)c1ccc(C2CCN(C(=O)c3scnc3Cl)CC2)cc1 [Example 1102, 4-{1-[(4-chloro-1,3-thiazol-5-yl)carbonyl]piperidin-4-yl}-N-(imidazo[1,2-a]pyridin-7-ylmethyl)benzamide]
6.96 nM	–	CC(C)c1ncncc1C(=O)N1CCC(c2ccc(C(=O)NCc3ccn4ccnc4c3)cc2)CC1 [Example 1104, N-(imidazo[1,2-a]pyridin-7-ylmethyl)-4-(1-{[4-(propan-2-yl)pyrimidin-5-yl]carbonyl}piperidin-4-yl)benzamide]
2.6 nM	–	CCCc1c(C(=O)N2CCC(c3ccc(C(=O)NCc4ccn5ccnc5c4)cc3)CC2)cnn1C [Example 1105, N-(imidazo[1,2-a]pyridin-7-ylmethyl)-4-{1-[(1-methyl-5-propyl-1H-pyrazol-4-yl)carbonyl]piperidin-4-yl}benzamide]
20.1 nM	–	CC(C)c1nc(C(=O)N2CCC(c3ccc(C(=O)NCc4ccn5ccnc5c4)cc3)CC2)cs1 [Example 1108, N-(imidazo[1,2-a]pyridin-7-ylmethyl)-4-(1-{[2-(propan-2-yl)-1,3-thiazol-4-yl]carbonyl}piperidin-4-yl)benzamide]
9.21 nM	–	Cc1cc(C(=O)N2CCC(c3ccc(C(=O)NCc4ccn5ccnc5c4)cc3)CC2)nn1C(F)F [Example 1109, 4-(1-{[1-(difluoromethyl)-5-methyl-1H-pyrazol-3-yl]carbonyl}piperidin-4-yl)-N-(imidazo[1,2-a]pyridin-7-ylmethyl)benzamide]
62 nM	–	O=C(NCc1ccn2ccnc2c1)c1ccc(C2CCN(C(=O)c3cc4ccccn4n3)CC2)cc1 [Example 1111, N-(imidazo[1,2-a]pyridin-7-ylmethyl)-4-[1-(pyrazolo[1,5-a]pyridin-2-ylcarbonyl)piperidin-4-yl]benzamide]
23.1 nM	–	CC(C)c1nc(C(=O)N2CCC(c3ccc(C(=O)NCc4ccn5ccnc5c4)cc3)CC2)co1 [Example 1113, N-(imidazo[1,2-a]pyridin-7-ylmethyl)-4-(1-{[2-(propan-2-yl)-1,3-oxazol-4-yl]carbonyl}piperidin-4-yl)benzamide]
21.8 nM	–	COc1ncc(C)cc1C(=O)N1CCC(c2ccc(C(=O)NCc3ccn4ccnc4c3)cc2)CC1 [Example 1114, N-(imidazo[1,2-a]pyridin-7-ylmethyl)-4-{1-[(2-methoxy-5-methylpyridin-3-yl)carbonyl]piperidin-4-yl}benzamide]
21.2 nM	–	COc1ccc(C(=O)N2CCC(c3ccc(C(=O)NCc4ccn5ccnc5c4)cc3)CC2)nc1OC [Example 1115, 4-{1-[(5,6-dimethoxypyridin-2-yl)carbonyl]piperidin-4-yl}-N-(imidazo[1,2-a]pyridin-7-ylmethyl)benzamide]
6.19 nM	–	Cn1cc2c(C(=O)N3CCC(c4ccc(C(=O)NCc5ccn6ccnc6c5)cc4)CC3)cccc2n1 [Example 1116, N-(imidazo[1,2-a]pyridin-7-ylmethyl)-4-{1-[(2-methyl-2H-indazol-4-yl)carbonyl]piperidin-4-yl}benzamide]
